Here are results for 16 molecules from US20250154171A1, “RAS INHIBITORS” (Revolution Medicines, Inc., priority 2023, published 2025).

As a reminder, the IC50 is the concentration that gives 50% inhibition.

Read-outs that look alike come from different tables or passages of the source.

The test system of data set [1] is K-RasG12V (Capan-1). Put plainly: Potency assay: cellular pERK (AlphaLISA SureFire or In-Cell Western), Capan-1. As to conditions: Homo sapiens; Capan-1 cells; 4 hours; in at least one of the assays (AlphaLISA or In-Cell Western); read-out: pERK IC50 with respect to K-RasG12V (Capan-1). In kind it is cell-based. The text has this:
The purpose of this assay is to measure the ability of test compounds to inhibit K-Ras in cells. Activated K-Ras induces increased phosphorylation of ERK at Threonine 202 and Tyrosine 204 (PERK). This procedure measures a decrease in cellular pERK in response to test compounds. The procedure described below in Capan-1 cells is applicable to K-RasG12V.
Note: This protocol may be executed substituting other cell lines to characterize inhibitors of other RAS variants, including, for example, NCI-H358 (K-Ras G12C), AsPC-1 (K-Ras G12D), Capan-1 (K-Ras G12V), or NCI-H1355 (K-Ras G13C).
Cells are grown and maintained using media and procedures recommended by the ATCC. On the day prior to compound addition, cells are plated in 384-well cell culture plates (40 μl/well) and grown overnight in a 37° C., 5% CO2 incubator. Test compounds are prepared in 10, 3-fold dilutions in DMSO, with a high concentration of 10 mM. On the day of assay, 40 nL of test compound is added to each well of cell culture plate using an Echo550 liquid handler (LabCyte®). Concentrations of test compound are tested in duplicate. After compound addition, cells are incubated 4 hours at 37° C., 5% CO2. Following incubation, culture medium is removed, and cells are washed once with phosphate buffered saline.
In some experiments, cellular pERK level is determined using the AlphaLISA SureFire Ultra p-ERK1/2 Assay Kit (PerkinElmer). Cells are lysed in 25 μL lysis buffer, with shaking at 600 RPM at room temperature. Lysate (10 μL) is transferred to a 384-well Opti-plate (PerkinElmer) and 5 μL acceptor mix is added. After a 2-hour incubation in the dark, 5 μL donor mix is added, plate is sealed, and incubated 2 hours at room temperature. Signal is read on an Envision plate reader (PerkinElmer) using standard AlphaLISA settings. Analysis of raw data is carried out in Excel (Microsoft) and Prism (GraphPad). Signal is plotted vs. the decadal logarithm of compound concentration, and IC50 is determined by fitting a 4-parameter sigmoidal concentration response model.
In other experiments, cellular pERK is determined by In-Cell Western. Following compound treatment, cells are washed twice with 200 μL tris buffered saline (TBS) and fixed for 15 minutes with 150 μL 4% paraformaldehyde in TBS. Fixed cells are washed 4 times for 5 minutes with TBS containing 0.1% Triton X-100 (TBST) and then blocked with 100 μL Odyssey blocking buffer (LI-COR) for 60 minutes at room temperature. Primary antibody (PERK, CST-4370, Cell Signaling Technology) is diluted 1:200 in blocking buffer, and 50 μL is added to each well and incubated overnight at 4° C. Cells are washed 4 times for 5 minutes with TBST. Secondary antibody (IR-800CW rabbit, LI-COR, diluted 1:800) and DNA stain DRAQ5 (LI-COR, diluted 1:2000) are added and incubated 1-2 hours at room temperature. Cells are washed 4 times for 5 minutes with TBST. Plates are scanned on a Li—COR Odyssey CLx Imager. Analysis of raw data is carried out in Excel (Microsoft) and Prism (GraphPad). Signal is plotted vs. the decadal logarithm of compound concentration, and IC50 is determined by fitting a 4-parameter sigmoidal concentration response model.

`CO[C@@H](C)c1ncc([C@@H]2CCN(C3CC3)C2)cc1-c1c2c3cc(ccc3n1CCOC1CCOCC1)-c1csc(n1)[C@@H](N1CC(C)(OC)C1)[C@H](NC(=O)OC(C)(C)C)C(=O)N1CCC[C@H](N1)C(=O)OCC(C)(C)C2` showed a ring closure, isolated yield (from CO[C@@H](C)c1ncc([C@@H]2CCN(C3CC3)C2)cc1-c1c(CC(C)(C)CO)c2cc(-c3csc([C@H]([C@H](NC(=O)OC(C)(C)C)C(=O)N4CCC[C@@H](C(=O)O)N4)N4CC(C)(OC)C4)n3)ccc2n1CCOC1CCOCC1, ester bond, 18-membered ring, EDCI/HOBt/DIEA, CH2Cl2, 9.4 mM, 25.0 °C, 16.0 h) of 43.6%. Consider `CO[C@@H](C)c1ncc(N2CCN(C(=O)OCc3ccccc3)CC2)cc1-c1c2c3cc(ccc3n1CCO[C@H]1CCOC(C)(C)C1)-c1nc(co1)[C@@H](N1CCCC1)[C@H](NC(=O)OC(C)(C)C)C(=O)N1N[C@H](C(=O)OCC(C)(C)C2)C2CC1C2`, for which the ring closure, isolated yield (from CO[C@@H](C)c1ncc(N2CCN(C(=O)OCc3ccccc3)CC2)cc1-c1c(CC(C)(C)COC(=O)[C@H]2NN(C(=O)[C@@H](NC(=O)OC(C)(C)C)[C@@H](c3coc(Br)n3)N3CCCC3)C3CC2C3)c2cc(B3OC(C)(C)C(C)(C)O3)ccc2n1CCO[C@H]1CCOC(C)(C)C1, cc_pd bond, 18-membered ring, Pd(DtBPF)Cl2/K3PO4, toluene/dioxane/H2O, 15.9 mM, 80.0 °C, 2.0 h) was found to be 24%. Where the note is “ester bond, 18-membered ring, EDCI/HOBt/DIEA, CH2Cl2, 4.68 mM, 30.0 °C”, “tert-butyl ((6^4S,3S,4S,Z)-12-(5-(4-cyclopropylpiperazin-1-yl)-2-((S)-1-methoxyethyl)pyridin-3-yl)-10,10-dimethyl-3-morpholino-5,7-dioxo-11-(2-((tetrahydro-2H-pyran-4-yl)oxy)ethyl)-11H-8-oxa-6^2,6^3-diaza-2(4,2)-thiazola-1(5,3)-indola-6 (2,4)-bicyclo[3.1.1]heptanacycloundecaphane-4-yl) carbamate” had a ring closure, isolated yield of 41%. Take `CO[C@@H](C)c1ncccc1-c1c2c3cc(ccc3n1C1CN(C3CC3)C1)-c1coc(n1)[C@@H](N1CCN(C)CC1)[C@H](NC(=O)[C@@H]1[C@@H](C)[C@H]1c1ccncn1)C(=O)N1CCC[C@H](N1)C(=O)OCC(C)(C)C2` (atropisomer, axis not shown) [Example A1104]: the IC50 in data set [1] was below 0.65 µM.

For `C[C@@H]1OC[C@H](C)OCCn2c(c(CC(C)(C)CO[Si](c3ccccc3)(c3ccccc3)C(C)(C)C)c3cc(Br)ccc32)-c2cccnc21`, the ring closure, isolated yield (from C[C@H](OC[C@H](C)OCCBr)c1ncccc1-c1[nH]c2ccc(Br)cc2c1CC(C)(C)CO[Si](c1ccccc1)(c1ccccc1)C(C)(C)C, amine bond, 11-membered ring, Cs2CO3, DMF, 119.0 mM, 60.0 °C, 1.0 h) was found to be 76.9%. For the setting “from CO[C@@H](C)c1ncc(N2CCN(C3CC3)CC2)cc1-c1c(CC(C)(C)CO)c2cc(-c3csc([C@H]([C@H](NC(=O)OC(C)(C)C)C(=O)N4CCC[C@@H](C(=O)O)N4)N4CC5(COC5)C4)n3)ccc2n1CCOC1CCOCC1, ester bond, 18-membered ring, EDCI/HOBt/DIEA, CH2Cl2, 9.35 mM, 25.0 °C”, `CO[C@@H](C)c1ncc(N2CCN(C3CC3)CC2)cc1-c1c2c3cc(ccc3n1CCOC1CCOCC1)-c1csc(n1)[C@@H](N1CC3(COC3)C1)[C@H](NC(=O)OC(C)(C)C)C(=O)N1CCC[C@H](N1)C(=O)OCC(C)(C)C2` returned a ring closure, isolated yield of 27.3%. On to `CO[C@@H](C)c1ncccc1-c1c2c3cc(ccc3n1C1CN(C3CC3)C1)-c1csc(n1)[C@@H](N1CC3(CCN3C)C1)[C@H](NC(=O)[C@H]1[C@H](C)[C@@H]1C)C(=O)N1CCC[C@H](N1)C(=O)OCC(C)(C)C2` (atropisomer, axis not shown) [Example A1191], for which the IC50 in data set [1] was below 0.65 µM. The molecule `CO[C@@H](C)c1ncc(N2CCN(C3CC3)CC2)cc1-c1c2c3cc(ccc3n1CCOC1CCOCC1)-c1csc(n1)[C@@H](N1CCCC1)[C@H](NC(=O)OC(C)(C)C)C(=O)N1CCC[C@H](N1)C(=O)OCC(C)(C)C2` had a ring closure, isolated yield (from CO[C@@H](C)c1ncc(N2CCN(C3CC3)CC2)cc1-c1c(CC(C)(C)CO)c2cc(-c3csc([C@H]([C@H](NC(=O)OC(C)(C)C)C(=O)N4CCC[C@@H](C(=O)O)N4)N4CCCC4)n3)ccc2n1CCOC1CCOCC1, ester bond, 18-membered ring, EDCI/HOBt/DIEA, CH2Cl2, 9.59 mM, 25.0 °C) of 54.7%. Consider `CO[C@@H](C)c1ncccc1-c1c2c3cc(ccc3n1[C@H]1C[C@@H](C#N)C1)-c1csc(n1)[C@@H](N1CC3(CCCN3C)C1)[C@H](NC(=O)[C@H]1[C@H](C)[C@@H]1C)C(=O)N1CCC[C@H](N1)C(=O)OCC(C)(C)C2` (atropisomer, axis not shown) [Example A983], for which the IC50 in data set [1] was below 0.65 µM. Same read-out and setting: to `CO[C@@H](C)c1ncccc1-c1c2c3cc(ccc3n1C1CN(C3CC3)C1)-c1coc(n1)[C@@H](N1CC3(CCCN3C)C1)[C@H](NC(=O)[C@@H]1[C@@H](C)[C@H]1c1ccncn1)C(=O)N1CCC[C@H](N1)C(=O)OCC(C)(C)C2` (atropisomer, axis not shown) [Example A1086] belongs below 0.65 µM. `CO[C@@H](C)c1ncccc1-c1c2c3cc(ccc3n1CCOC1CCOCC1)-c1csc(n1)[C@@H](N1CCOC[C@@H]1C#N)[C@H](NC(=O)OC(C)(C)C)C(=O)N1CCC[C@H](N1)C(=O)OC(C)(C)C2` returned a ring closure, isolated yield (from CO[C@@H](C)c1ncccc1-c1c(CC(C)(C)O)c2cc(-c3csc([C@H]([C@H](NC(=O)OC(C)(C)C)C(=O)N4CCC[C@@H](C(=O)O)N4)N4CCOC[C@@H]4C#N)n3)ccc2n1CCOC1CCOCC1, ester bond, 18-membered ring, EDCI/HOBt/DIEA, CH2Cl2, 10.4 mM, 25.0 °C, 2.0 h) of 31%. For `CO[C@@H](C)c1ncccc1-c1c2c3cc(ccc3n1[C@H]1C[C@@H](C#N)C1)-c1csc(n1)[C@@H](N1CC3(CCCN3)C1)[C@H](NC(=O)[C@H]1[C@H](C)[C@@H]1C)C(=O)N1CCC[C@H](N1)C(=O)OCC(C)(C)C2` (atropisomer, axis not shown) [Example A1168], the IC50 in data set [1] was below 0.65 µM. In the case of `CO[C@@H](C)c1ncccc1-c1c2c3cc(ccc3n1[C@H]1C[C@@H](C#N)C1)-c1coc(n1)[C@@H](OCc1ccccn1)[C@H](NC(=O)[C@H]1[C@H](C)[C@@H]1C)C(=O)N1N[C@H](C(=O)OCC(C)(C)C2)C2CC1C2` [Example A1174], the IC50 in data set [1] was below 0.65 µM. “tert-butyl ((6^3S,3R,4S)-1^2-(5-(4-cyclopropylpiperazin-1-yl)-2-((S)-1-methoxyethyl)pyridin-3-yl)-3-ethoxy-10,10-dimethyl-5,7-dioxo-1^1-(2-((tetrahydro-2H-pyran-4-yl)oxy)ethyl)-6^1,6^2,6^3,6^4,6^5,6^6-hexahydro-1^1H-8-oxa-2 (5,2)-oxazola-1(5,3)-indola-6(1,3)-pyridazinacycloundecaphane-4-yl) carbamate” displayed a ring closure, isolated yield (cc_pd bond, 18-membered ring, XPhos Pd G3/XPhos/K3PO4, toluene/dioxane/H2O, 53.0 mM, 80.0 °C) of 16.3%. As for `CO[C@@H](C)c1ncccc1-c1c2c3cc(ccc3n1CCO[C@H]1CCOC(C)(C)C1)-c1coc(n1)C[C@H](NC(=O)OC(C)(C)C)C(=O)N1N[C@H](C(=O)OCC(C)(C)C2)C2CC1C2`, the ring closure, isolated yield (from CO[C@@H](C)c1ncccc1-c1c(CC(C)(C)CO)c2cc(-c3coc(C[C@H](NC(=O)OC(C)(C)C)C(=O)N4N[C@H](C(=O)O)C5CC4C5)n3)ccc2n1CCO[C@H]1CCOC(C)(C)C1, ester bond, 18-membered ring, EDCI/HOBt/DIEA, MeCN, 11.5 mM, 35.0 °C, 2.0 h) worked out at 30.6%. `CO[C@@H](C)c1ncc(N2CCN(C3CC3)CC2)cc1-c1c2c3cc(ccc3n1CCO[C@H]1CCOC(C)(C)C1)-c1coc(n1)[C@@H](N1CC3(COC3)C1)[C@H](NC(=O)OC(C)(C)C)C(=O)N1CC3CC(C3)(N1)C(=O)OCC(C)(C)C2`: the ring closure, isolated yield (from CO[C@@H](C)c1ncc(N2CCN(C3CC3)CC2)cc1-c1c(CC(C)(C)CO)c2cc(-c3coc([C@H]([C@H](NC(=O)OC(C)(C)C)C(=O)N4CC5CC(C(=O)O)(C5)N4)N4CC5(COC5)C4)n3)ccc2n1CCO[C@H]1CCOC(C)(C)C1, ester bond, 18-membered ring, PyBOP/DMAP/DIEA, CH2Cl2, 1.83 mM, 20.0 °C, 15.0 h) was 62.5%.
